# Test results published in patent US8871756B2 (Hoffmann-La Roche Inc., priority 2011, dated 2014).
# Tested on: RSV Long strain
# Test: Viral cytopathic effect (CPE) assay, anti-RSV activity
# Type: cell-based, Respiratory Syncytial Virus
# Details: human respiratory syncytial virus, 144 h, RSV Long strain (ATCC); cell viability after 6 days, Cell Counting kit-8
# Description: Viral cytopathic effect (CPE) assay: To measure anti-RSV activity of compounds, 96-well plates are seeded with 6×10^3 cells per well in Dulbecco's modified Eagle's medium (DMEM) containing 10% fetal bovine serum (FBS). Cells are infected the next day with sufficient RSV Long strain (ATCC) to produce an approximately 80-90% cytopathic effect after 6 days, in the presence of serial half-log diluted compound in a total volume of 200 μL per well. The viability of cells is assessed after 6 days using Cell Counting kit-8 (Dojindo Molecular Technologies). The absorbance at 450 nm and referenced at 630 nm is measured to determine 50% effective concentration (EC50).
# The compounds of the present invention were tested for their anti-RSV activity, and the activation as described herein. The Examples were tested in the above assay and found to have EC50 of about 0.0001 μM to about 10 μM.
row,SMILES,EC50 [µM]
1,"COc1ccc2c(c1)CN(c1cc(NCC3(N)COC3)c3ccccc3n1)CCS2(=O)=O [Example 1-7, N-[(3-Aminooxetan-3-yl)methyl]-2-(7-methoxy-1,1-dioxido-2,3-dihydro-1,4-benzothiazepin-4(5H)-yl)-quinolin-4-amine]",0.022
2,"Cc1ccc2nc(N3CCS(=O)(=O)c4ccccc4C3)cc(NCC3(N)CCOC3)c2c1 (stereo not shown) [Example 2-1, N-[(3-Aminotetrahydrofuran-3-yl)methyl]-2-(1,1-dioxido-2,3-dihydro-1,4-benzothiazepin-4(5H)-yl)-6-methylquinolin-4-amine]",0.024
3,"Cc1ccc2nc(N3CCS(=O)(=O)c4ccccc4C3)cc(NCC3(N)CCOCC3)c2c1 [Example 2-3, N-[(4-Aminotetrahydro-2H-pyran-4-yl)methyl]-2-(1,1-dioxido-2,3-dihydro-1,4-benzothiazepin-4(5H)-yl)-6-methylquinolin-4-amine]",2.81
4,"Cc1ccc2c(c1)S(=O)(=O)CCN(c1cc(NCC3(N)COC3)c3ccccc3n1)C2 [Example 2-4, N-[(3-Aminooxetan-3-yl)methyl]-2-(8-methyl-1,1-dioxido-2,3-dihydro-1,4-benzothiazepin-4(5H)-yl)-quinolin-4-amine]",0.081
5,"Cc1ccc2nc(N3CCS(=O)(=O)c4ccccc4C3)cc(NCCC3(N)COC3)c2c1 [Example 2-7, N-[2-(3-Aminooxetan-3-yl)ethyl]-2-(1,1-dioxido-2,3-dihydro-1,4-benzothiazepin-4(5H)-yl)-6-methylquinolin-4-amine]",0.234
6,"Cc1ccc2nc(N3CCS(=O)(=O)c4ccccc4C3C)cc(NCC3(N)COC3)c2c1 (stereo not shown) [Example 2-8, N-[(3-Aminooxetan-3-yl)methyl]-6-methyl-2-(5-methyl-1,1-dioxido-2,3-dihydro-1,4-benzothiazepin-4(5H)-yl)quinolin-4-amine]",0.055
7,"O=S1(=O)CCN(c2cc(NCC3(NCc4ccccc4)COC3)c3cc(Cl)ccc3n2)Cc2cc(F)ccc21 [Example 3-2, N-{[3-(Benzylamino)oxetan-3-yl]methyl}-6-chloro-2-(7-fluoro-1,1-dioxido-2,3-dihydro-1,4-benzothiazepin-4(5H)-yl)quinolin-4-amine]",3.05
8,"NC1(CNc2cc(N3CCS(=O)(=O)c4ccc(F)cc4C3)nc3ccc(Cl)cc23)COC1 [Example 3-3, N-[(3-Aminooxetan-3-yl)methyl]-6-chloro-2-(7-fluoro-1,1-dioxido-2,3-dihydro-1,4-benzothiazepin-4(5H)-yl)quinolin-4-amine]",3.55
9,"COc1ccc2c(c1)CN(c1cc(NCC3(CNC(C)=O)COC3)c3cc(C)ccc3n1)CCS2(=O)=O [Example 3-6, N-{[3-({[2-(7-Methoxy-1,1-dioxido-2,3-dihydro-1,4-benzothiazepin-4(5H)-yl)-6-methylquinolin-4-yl]amino}methyl)oxetan-3-yl]methyl}acetamide]",0.058
10,"Cc1ccc2nc(N3CCS(=O)(=O)c4ccccc4C3)cc(NCC3(CO)COC3)c2c1 [Example 3-9, [3-({[2-(1,1-Dioxido-2,3-dihydro-1,4-benzothiazepin-4(5H)-yl)-6-methylquinolin-4-yl]amino}methyl)oxetan-3-yl]methanol]",0.248
11,"Cc1ccc2nc(N3CCS(=O)(=O)c4ccccc4C3)cc(NC[C@H](O)CO)c2c1 [Example 3-10, (2S)-3-{[2-(1,1-Dioxido-2,3-dihydro-1,4-benzothiazepin-4(5H)-yl)-6-methylquinolin-4-yl]amino}propane-1,2-diol]",0.053
12,"Cc1ccc2nc(N3CCS(=O)(=O)c4ccccc4C3)cc(NC[C@@H](O)CO)c2c1 [Example 3-11, (2R)-3-{[2-(1,1-Dioxido-2,3-dihydro-1,4-benzothiazepin-4(5H)-yl)-6-methylquinolin-4-yl]amino}propane-1,2-diol]",0.054
13,"Cc1ccc2nc(N3CCS(=O)(=O)c4ccccc4C3)cc(NCC3(CN)CC(F)(F)C3)c2c1 [Example 3-12, N-{[1-(Aminomethyl)-3,3-difluorocyclobutyl]methyl}-2-(1,1-dioxido-2,3-dihydro-1,4-benzothiazepin-4(5H)-yl)-6-methylquinolin-4-amine]",1.65
14,"COc1ccc2c(c1)S(=O)(=O)CCN(c1cc(NCC3(N)COC3)c3cc(Cl)ccc3n1)C2 [Example 3-13, N-[(3-Aminooxetan-3-yl)methyl]-6-chloro-2-(8-methoxy-1,1-dioxido-2,3-dihydro-1,4-benzothiazepin-4(5H)-yl)quinolin-4-amine]",0.099
15,"Cc1ccc2nc(N3CCS(=O)(=O)c4ccccc4C3)cc(NC3CCCC(N)C3)c2c1 (stereo not shown) [Example 3-16, N-[2-(1,1-Dioxido-2,3-dihydro-1,4-benzothiazepin-4(5H)-yl)-6-methylquinolin-4-yl]-cyclohexane-1,3-diamine]",0.075
16,"Cc1ccc2nc(N3CCS(=O)(=O)c4ccccc4C3)cc(N3C[C@H](O)C(C)(C)C3)c2c1 [Example 3-17, (R)-1-[2-(1,1-Dioxido-2,3-dihydro-1,4-benzothiazepin-4(5H)-yl)-6-methylquinolin-4-yl]-4,4-dimethyl-pyrrolidin-3-ol]",5.05
17,"Cc1ccc2nc(N3CCS(=O)(=O)c4ccccc4C3)cc(N[C@H]3CC[C@@H](N)CC3)c2c1 [Example 3-18, cis-N-[2-(1,1-Dioxido-2,3-dihydro-1,4-benzothiazepin-4(5H)-yl)-6-methylquinolin-4-yl]-cyclohexane-1,4-diamine]",0.024

# Results, then the compound that gave them:
row,EC50 [µM],SMILES
1,0.004,"COc1ccc2c(c1)CN(c1cc(NCC3(N)COC3)c3cc(C)ccc3n1)CCS2(=O)=O [Example 1-5, N-[(3-Aminooxetan-3-yl)methyl]-2-(7-methoxy-1,1-dioxido-2,3-dihydro-1,4-benzothiazepin-4(5H)-yl)-6-methylquinolin-4-amine]"
2,0.022,"Cc1ccc2nc(N3CCS(=O)(=O)c4cc(Cl)ccc4C3)cc(NCC3(N)COC3)c2c1 [Example 1-6, N-[(3-Aminooxetan-3-yl)methyl]-2-(8-chloro-1,1-dioxido-2,3-dihydro-1,4-benzothiazepin-4(5H)-yl)-6-methylquinolin-4-amine]"
3,0.002,"Cc1ccc2nc(N3CCS(=O)(=O)c4ccccc4C3)cc(NCC3(N)COC3)c2c1 [Example 2-2, N-[(3-Aminooxetan-3-yl)methyl]-2-(1,1-dioxido-2,3-dihydro-1,4-benzothiazepin-4(5H)-yl)-6-methylquinolin-4-amine]"
4,0.006,"Cc1ccc2c(c1)S(=O)(=O)CCN(c1cc(NCC3(N)COC3)c3cc(C)ccc3n1)C2 [Example 2-5, N-[(3-Aminooxetan-3-yl)methyl]-6-methyl-2-(8-methyl-1,1-dioxido-2,3-dihydro-1,4-benzothiazepin-4(5H)-yl)quinolin-4-amine]"
5,0.021,"Cc1ccc2nc(N3CCS(=O)(=O)c4ccccc4C3)cc(NC3CNCC34COC4)c2c1 (stereo not shown) [Example 2-6, 2-(1,1-Dioxido-2,3-dihydro-1,4-benzothiazepin-4(5H)-yl)-6-methyl-N-(2-oxa-6-azaspiro[3.4]oct-8-yl)quinolin-4-amine]"
6,0.007,"COc1ccc2c(c1)S(=O)(=O)CCN(c1cc(NCC3(N)COC3)c3ccccc3n1)C2 [Example 2-9, N-[(3-Aminooxetan-3-yl)methyl]-2-(8-methoxy-1,1-dioxido-2,3-dihydro-1,4-benzothiazepin-4(5H)-yl)quinolin-4-amine]"
7,0.005,"NC1(CNc2cc(N3CCS(=O)(=O)c4ccccc4C3)nc3ccncc23)COC1 [Example 2-10, N-[(3-Aminooxetan-3-yl)methyl]-2-(1,1-dioxido-2,3-dihydro-1,4-benzothiazepin-4(5H)-yl)-1,6-naphthyridin-4-amine]"
8,0.008,"Cc1ccc2nc(N3CCS(=O)(=O)c4ccccc4C3)cc(NCC3(N)CCCCC3)c2c1 [Example 2-11, N-[(1-Aminocyclohexyl)methyl]-2-(1,1-dioxido-2,3-dihydro-1,4-benzothiazepin-4(5H)-yl)-6-methylquinolin-4-amine]"
9,0.006,"Cc1ccc2nc(N3CCS(=O)(=O)c4cc(F)ccc4C3)cc(NCC3(CN)COC3)c2c1 [Example 3-1, N-{[3-(Aminomethyl)oxetan-3-yl]methyl}-2-(8-fluoro-1,1-dioxido-2,3-dihydro-1,4-benzothiazepin-4(5H)-yl)-6-methylquinolin-4-amine]"
10,0.006,"COc1ccc2c(c1)CN(c1cc(NCC3(CN)COC3)c3ccccc3n1)CCS2(=O)=O [Example 3-4, N-{[3-(Aminomethyl)oxetan-3-yl]methyl}-2-(7-methoxy-1,1-dioxido-2,3-dihydro-1,4-benzothiazepin-4(5H)-yl)-quinolin-4-amine]"
11,0.002,"COc1ccc2c(c1)CN(c1cc(NCC3(CN)COC3)c3cc(C)ccc3n1)CCS2(=O)=O [Example 3-5, N-{[3-(Aminomethyl)oxetan-3-yl]methyl}-2-(7-methoxy-1,1-dioxido-2,3-dihydro-1,4-benzothiazepin-4(5H)-yl)-6-methylquinolin-4-amine]"
12,0.009,Cc1ccc2c(c1)S(=O)(=O)CCN(c1cc(NCC3(CN)COC3)c3ccccc3n1)C2 [Example 3-7]
13,0.002,"Cc1ccc2c(c1)S(=O)(=O)CCN(c1cc(NCC3(CN)COC3)c3cc(C)ccc3n1)C2 [Example 3-8, N-{[3-(Aminomethyl)oxetan-3-yl]methyl}-6-methyl-2-(8-methyl-1,1-dioxido-2,3-dihydro-1,4-benzothiazepin-4(5H)-yl)quinolin-4-amine]"
14,0.017,"COc1ccc2c(c1)S(=O)(=O)CCN(c1cc(NCC3(CN)COC3)c3cc(Cl)ccc3n1)C2 [Example 3-14, N-{[3-(Aminomethyl)oxetan-3-yl]methyl}-6-chloro-2-(8-methoxy-1,1-dioxido-2,3-dihydro-1,4-benzothiazepin-4(5H)-yl)quinolin-4-amine]"
